Data set [1] concerns the target T1, KV7.2-L275V (Homo sapiens, UniProt O43526, L275V).
T1 construct: expressed in transfected cells; host or cells: Xenopus laevis oocytes injected with cRNA (pGEM-HE vector)
Put plainly: Two-electrode voltage-clamp of mutant KV7.2-L275V in Xenopus laevis oocytes. The data set is classed as cell-based. Particulars: 10 µM SMB-1, +50 mV, n = 4; read-out: current amplitude, % of control. How it is done: Point mutations were introduced using mutated oligonucleotide extension (PfuTurbo Polymerase, Stratagene, La Jolla, CA, USA) from a plasmid template harboring the cDNA of interest, digested with DpnI (Fermentas, St. Leon-Roth, Germany) and transformed into E.coli XL1 Blue cells. The construct was verified by complete DNA sequencing of the cDNA insert. cRNA was prepared from linearized human wild-type (WT) and mutant KV7 channels in the pGEM-HE vector using the T7 m-Message Machine kit (Ambion, Austin, TX, USA) according to the manufacturer's instructions.
Extraction of Xenopus laevis oocytes and injection of cRNA was performed as described previously. Oocytes were kept in Modified Barth's Saline (in mM: 88 NaCl, 1 KCl, 2.4 NaHCO3, 0.41 CaCl2, 0.82 MgSO4, 0.3 Ca(NO3)2, 15 HEPES, pH 7.4 supplemented with 100 U/mL penicillin and 100 µg/mL streptomycin) at 18°C, and currents were recorded after 2-7 days. […]
KV7 currents in Xenopus laevis oocytes were recorded using two-electrode voltage-clamp at room temperature in Ringer buffer (in mM: 115 NaCl, 2.5 KCl, 1.8 CaCl2, 0.1 MgCl2, 10 HEPES, pH 7.4) as described previously. Data was acquired using pCLAMP 10.2 software (Molecular Devices, CA, USA) and analyzed using pCLAMP 10.2 and GraphPad Prism 4.0 (GraphPad Software Inc., CA, USA). […]

Data set [2] can be described thus: Brain and plasma exposure in rats after subcutaneous administration. It counts as in vivo. Particulars: male, Sprague-Dawley, sc, rat, 20 mg/kg s.c.; for concentration at 30 min / concentration at 120 min: n = 3, mean ± S.E.M. How it is done: Brain and plasma exposure of SMB-1 was evaluated in male Sprague-Dawley rats (225–250 g, Charles River Lab., UK). SMB-1 was administered subcutaneously in solution at a dose of 20 mg/kg in 25% solutol (dose volume 5 ml/kg) and exposure was assessed after 30 and 120 min (n = 3). Under isoflurane anesthesia, cardiac blood was obtained in EDTA-coated tubes and centrifuged for 10 min at 4°C, after which plasma was harvested. While still under anesthesia, the animal was decapitated, the brain was removed and brain homogenate was prepared by homogenizing the whole brain with 70% acetonitrile (1∶4 v/v) followed by centrifugation and collection of the supernatant. Concentrations of SMB-1 were determined using turboflow chromatography (dual column, focus mode; Thermo Fisher Scientific, Waltham, MA) followed by tandem mass spectrometry detection (Sciex API-3000 MS; Applied Biosystems, Foster City, CA). The limit of detection was 1 ng/ml in plasma and 5 ng/g in brain.

The nature of data set [3]: Visual inspection of solution in Ringer buffer for precipitation. The data set is classed as physicochemical. How it is done: SMB-1 was dissolved in dimethyl sulfoxide (DMSO) to obtain a concentrated stock solution. On the day of experiments the stock solution was thawed and diluted in Ringer buffer to the final concentrations. A concentration of 10 µM SMB-1 was used unless indicated otherwise. The final DMSO concentration never exceeded 0.1%.
To determine the potency of SMB-1 on KV7.2 the compound was tested at four concentrations (0.4, 2, 10 and 50 µM). […] The current amplitude in percentage of control at +50 mV was plotted against the logarithm of the concentration.

The mark [4] stands for this setting: brain, read-out: Brain total concentration.
[5] abbreviates: plasma, read-out: Plasma total concentration.

Like-named read-outs stand apart in the source and are kept apart here.

T1 sequence (O43526 whole entry L275V): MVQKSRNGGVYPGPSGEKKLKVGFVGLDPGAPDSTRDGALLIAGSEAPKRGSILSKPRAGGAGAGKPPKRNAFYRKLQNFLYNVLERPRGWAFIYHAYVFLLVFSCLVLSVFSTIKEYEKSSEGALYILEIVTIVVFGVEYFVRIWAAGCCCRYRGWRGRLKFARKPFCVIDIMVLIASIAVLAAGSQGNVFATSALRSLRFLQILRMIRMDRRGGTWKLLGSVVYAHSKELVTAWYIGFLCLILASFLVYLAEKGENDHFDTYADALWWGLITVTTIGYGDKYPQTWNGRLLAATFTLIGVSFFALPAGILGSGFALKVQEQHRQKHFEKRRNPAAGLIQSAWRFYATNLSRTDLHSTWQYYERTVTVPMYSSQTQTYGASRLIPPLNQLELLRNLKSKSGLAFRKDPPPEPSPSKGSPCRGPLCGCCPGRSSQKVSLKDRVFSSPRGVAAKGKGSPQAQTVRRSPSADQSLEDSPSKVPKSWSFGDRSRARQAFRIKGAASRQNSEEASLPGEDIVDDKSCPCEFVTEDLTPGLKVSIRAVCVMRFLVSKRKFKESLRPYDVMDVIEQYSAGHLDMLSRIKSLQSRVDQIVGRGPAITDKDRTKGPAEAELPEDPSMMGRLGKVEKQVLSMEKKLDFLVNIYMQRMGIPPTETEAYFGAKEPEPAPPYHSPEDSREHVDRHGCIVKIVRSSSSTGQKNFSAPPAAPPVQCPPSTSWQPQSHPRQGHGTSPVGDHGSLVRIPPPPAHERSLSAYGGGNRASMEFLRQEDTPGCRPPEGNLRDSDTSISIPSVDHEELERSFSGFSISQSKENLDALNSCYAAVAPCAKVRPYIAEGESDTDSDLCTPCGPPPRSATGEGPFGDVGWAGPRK

In the case of `C[C@@H](c1ccc2c(c1)N(CC1CC1)CCO2)N(C)C(=O)/C=C/c1ccccc1F` [SMB-1, (E)-N-[(S)-1-(4-Cyclopropylmethyl-3,4-dihydro-2H-1,4-benzoxazin-6-yl)-ethyl]-3-(2-fluoro-phenyl)-N-methyl-acrylamide], the remaining activity at 10 µM in data set [1] amounted to 90.4 ± 4.1%. Besides, in data set [2] (setting [4]), the concentration at 30 min stood at 0.55 ± 0.04 µM and the concentration at 120 min was 0.44 ± 0.07 µM. Further, the Kp at 2 h in data set [2] (brain/plasma, 30 and 120 min, read-out: brain/plasma partition coefficient) is 0.04 to 0.07. Moreover, in data set [2] (setting [5]), the concentration at 30 min came out at 14 ± 1.5 µM and the concentration at 120 min came out at 6.4 ± 0.7 µM. For the same compound, the “concentration above which the drug precipitated” value in data set [3] is “above 50 µM”.

(Values after publication PMC4067310, “From Pan-Reactive KV7 Channel Opener to Subtype Selective Opener/Inhibitor by Addition of a Methyl Group” (PLoS ONE, 2014).)
